{
  "source": "paper PMC12459314",
  "about": "“Subcutaneous administration of a novel TRPM8 antagonist reverses cold hypersensitivity while attenuating the drop in core body temperature” (British journal of pharmacology, 2024)",
  "key": {"[1]": {"target": "T1, κ opioid receptor (OPRK1) (Homo sapiens, UniProt P41145)", "T1 construct": "purchased Eurofins DiscoverX (SAFETYscan; gpcrSCAN; HitHunter cAMP XS+)", "T1 sequence (P41145 whole entry)": "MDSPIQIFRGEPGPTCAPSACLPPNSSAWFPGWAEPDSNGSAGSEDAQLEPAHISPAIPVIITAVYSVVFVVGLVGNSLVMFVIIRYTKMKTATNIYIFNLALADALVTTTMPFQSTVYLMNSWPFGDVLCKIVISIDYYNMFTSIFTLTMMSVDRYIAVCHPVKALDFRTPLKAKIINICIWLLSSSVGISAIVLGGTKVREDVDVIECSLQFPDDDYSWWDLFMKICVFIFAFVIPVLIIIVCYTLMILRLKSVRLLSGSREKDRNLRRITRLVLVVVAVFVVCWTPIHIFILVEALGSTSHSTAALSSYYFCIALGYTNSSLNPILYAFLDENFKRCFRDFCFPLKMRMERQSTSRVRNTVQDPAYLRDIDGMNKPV", "test": "Eurofins DiscoverX opioid receptor assays (SAFETYscan; HitHunter cAMP), OPRK1", "type": "cell-based", "protocol": "Assessment of the safety profile of VBJ103 across 78 assays using recombinant human targets was performed with the SAFETYscan E/IC50 ELECT service by Eurofins DiscoverX (San Diego, CA, USA). […] The assays were performed utilizing PathHunter enzyme fragment complementation (EFC) technology, FLIPR®-based cellular screening assays, KINOMEscan kinase binding assays and a variety of enzymatic assays. Further potential functional activity at opioid receptors was performed in the gpcrSCAN service by Eurofins DiscoverX. Hit Hunter® cAMP assays were carried out using Enzyme Fragment Complementation (EFC) with β-galactosidase (β-Gal) as the functional reporter.\nAssessment of potential positive allosteric modulator (PAM) activity at μ, δ and κ opioid receptors was performed with the DiscoverX HitHunter cAMP XS+ assay by Eurofins DiscoverX (San Diego, CA, USA)."}, "[2]": {"test": "Partition coefficient (logD), shake flask method", "type": "physicochemical", "details": "n-octanol / pH 7.4 phosphate buffer, pH 7.4", "protocol": "The partition coefficient (logD) at pH 7.4 of VBJ103 was determined using the shake flask method by Absorption Systems (Exton, PA, USA). The buffer was prepared by combining 50 ml of 0.2-M solution of KH2PO4 with 150 ml of dH2O and then adjusting to pH 7.4 with 10-N NaOH. In a single incubation, 15 μl of a 10-mM DMSO solution of each test article was added to test tubes which contained 0.75 ml of n-octanol and 0.75 ml of pH 7.4 phosphate buffer. Testosterone was also introduced to each tube as an internal control, also at a dosing concentration of 100 μM. These samples were gently mixed on a benchtop rotator for 1 h at room temperature. The tubes were then removed from the rotator, and the aqueous and organic phases were allowed to separate for 1 h. An aliquot of the organic layer was taken and diluted 200-fold into a mixture of 1:1 buffer: acetonitrile (ACN). An aliquot of the aqueous layer was taken and diluted 2-fold, 10-fold and 200-fold into a mixture of 1:1 buffer: ACN. All samples were assayed by LC–MS/MS on a Thermo BDS Hypersil C18 column (30 × 2.1 mm, 3 μm) using electrospray ionization, as previously reported ([Journigan et al., 2020])."}, "oxaliplatin-treated mice": {"system": "oxaliplatin-treated mice", "test": "Oxaliplatin-induced cold hyperalgesia, cold-plantar test", "type": "in vivo, mouse", "details": "for reversal of cold hypersensitivity (withdrawal latency) / increase in latency (AUC) compared to baseline: oxaliplatin group; for influence on oxaliplatin-induced cold hypersensitivity: 30 mg·kg−1 alone", "protocol": "Male and female C57 BL/6J mice from Taconic Labs were randomized by sex and cage to oxaliplatin or vehicle groups. Mice were weighed and injected intraperitoneally (i.p.) with either oxaliplatin (3 mg·kg^−1), or vehicle (5% dextrose) once per day every day for five consecutive days, followed by five days off, and then by a second round of once per day for five more days. Therefore, mice received a total of 10 injections for a total of 30 mg·kg^−1. The average weight of the females was 18 g while of the males was 20 g. Consequently, the females received an average of 540 and the males 600 μg in total. Behavioural testing was started after the second round of oxaliplatin/vehicle administration. The cold-plantar test was used to assess changes in cold sensitivity. A 3 ml syringe barrel filled with powdered dry ice was used as the stimulus. The dry ice is placed on the glass (borosilicate glass; thickness, 1/8 in. (3.17 mm); temperature, 75°F (24°C), measured with a calibrated IR temperature probe) beneath the hindpaw and the latency to withdraw was determined ([Yilmaz et al., 2017]). The baseline withdrawal latency was determined from the mean of three stimulus applications (at an inter-stimulus interval of ~5 min), while that at each time interval after the administration of a test agent was again the mean of three stimulus applications bracketing the time point in question (i.e., 5 min before, at the time point, and 5 min after). Mice in the two groups defined by oxaliplatin treatment were subsequently randomized to the order of treatment (with the TRPM8 antagonist VBJ103, or vehicle control). VBJ103 and vehicle solutions were administered subcutaneously (s.c.) at doses of 3, 10 and 30 mg·kg^−1. Mice were tested every other day over 7 days so that each mouse received all four injections (vehicle and three doses of VBJ103). In a second cohort of male (n = 8) and female (n = 8) mice, all mice were treated with oxaliplatin as described above, and then randomized to the order of treatment with vehicle, VBJ103 (30 mg·kg^−1) alone, the TRPA1 antagonist, HC-030031 (200 mg·kg^−1) alone, or the combination of VBJ103 (30 mg·kg^−1) and HC-030031 (200 mg·kg^−1). A third cohort of male (n = 7) and female (n = 8) mice was also treated with oxaliplatin as described above. […] All test agents in both follow-up cohorts were again administered in a volume of 5 ml·kg^−1. Mice in both follow-up cohorts were again tested every other day over a period of 6 days. Finally, a fourth cohort of male (n = 4) and female (n = 4) mice was used to confirm that 200 mg·kg^−1 HC-030031 was sufficient to block TRPA1. For this experiment, mice were randomized to the order of treatment with vehicle or HC-030031 ([…])."}, "[3]": {"test": "Core body temperature and home cage activity by radiotelemetry (s.c., i.p.)", "type": "in vivo, mouse", "protocol": "Male and female C57Bl6J (Jackson Laboratories, Bar Harbor, USA, 8–12 weeks of age, 4 M:3F) were anaesthetised with isoflurane (2%–3% in 100% oxygen), and an HDX11 telemetry unit (Data Sciences) was inserted into the peritoneal cavity through a ventral midline incision. Animals were treated with buprenex (0.05 mg·kg^−1, s.c.every 8 h for 72 h) and enrofloxacin (2 mg·kg^−1, s.c.) and single-housed in a reverse light–dark cycle room (lights off 10 AM–10 PM). Mice were handled every day to acclimatise to injections, and experiments began 1 week later. All injections were performed between 1 and 2 PM. […] Body temperature was averaged into 5-min bins, whereas activity data were summed for the 5-min bin."}, "[4]": {"design": "method as in Journigan et al., 2020", "details": "intraplantar administration; ref Journigan et al., 2020; cited from earlier work"}},
  "note": "“And” between values parts separate entries of the source, which are not always exact repeats. Equal entries are not always repeated.",
  "data": [
    {"compound": "O=C(NC1CCC2(CCCC2)CC1)c1ccc(-c2ccccc2)cc1", "note": "[VBJ103, N-(Spiro[4.5]decan-8-yl)-[1,1′-biphenyl]-4-carboxamide]", "values": [
      {"measurement": "Emax", "setting": "[1]; Positive Allosteric Modulator format, read-out: Max Response, cAMP", "result": 19.7, "unit": "%"},
      {"measurement": "EC50", "setting": "[1]; read-out: RC50 (EC50), cAMP", "result": "> 100", "unit": "µM"},
      {"measurement": "activity at κ opioid receptor", "setting": "[1]; safety panel", "result": "no activity"},
      {"measurement": "logD at 1 h", "setting": "[2]", "result": 3.21},
      {"measurement": "reversal of cold hypersensitivity (withdrawal latency)", "setting": "oxaliplatin-treated mice; 3 mg·kg−1 s.c., at 2 h", "result": "significant reversals in hypersensitivity"},
      {"measurement": "reversal of cold hypersensitivity (withdrawal latency)", "setting": "oxaliplatin-treated mice; 10 mg·kg−1 s.c., at 1 and 2 h", "result": "significant reversals in hypersensitivity"},
      {"measurement": "increase in latency (AUC) compared to baseline", "setting": "oxaliplatin-treated mice; 10 mg·kg−1 s.c.", "result": "significant"},
      {"measurement": "influence on oxaliplatin-induced cold hypersensitivity", "setting": "oxaliplatin-treated mice; second cohort, vehicle 0.5% Methocel", "result": "significantly attenuated oxaliplatin-induced cold hypersensitivity at all time points tested"},
      {"measurement": "influence on oxaliplatin-induced cold hypersensitivity", "setting": "oxaliplatin-treated mice; third cohort, vehicle 1:1 DMSO:water", "result": "significantly reversed"},
      {"measurement": "reversal of cold hypersensitivity (withdrawal latency)", "setting": "oxaliplatin-treated mice; 30 mg·kg−1 s.c., at 0.5, 1 and 2 h", "result": "significant reversals in hypersensitivity"},
      {"measurement": "increase in latency (AUC) compared to baseline", "setting": "oxaliplatin-treated mice; 30 mg·kg−1 s.c.", "result": "significant"},
      {"measurement": "influence on withdrawal latency to noxious cold stimuli", "setting": "oxaliplatin-treated mice; VBJ103 30 mg·kg−1 in combination with GBR12909 20 mg·kg−1, third cohort", "result": "no detectable influence of GBR12909 on the withdrawal latency"},
      {"measurement": "influence on withdrawal latency to noxious cold stimuli", "setting": "oxaliplatin-treated mice; VBJ103 30 mg·kg−1 in combination with HC-030031 200 mg·kg−1, second cohort", "result": "not detectably different from the influence of VBJ103 alone"},
      {"measurement": "baseline responses to noxious cold compared to vehicle", "setting": "oxaliplatin-treated mice; mice not treated with oxaliplatin, 3 to 30 mg·kg−1 s.c.", "result": "not altered"},
      {"measurement": "drop in CBT versus vehicle", "setting": "[3]; 3 mg·kg−1 i.p.", "result": "not different"},
      {"measurement": "time for CBT to return to baseline values", "setting": "[3]; 3 mg·kg−1 s.c.", "result": "223 ± 25", "unit": "min"},
      {"measurement": "time for CBT to return to baseline values", "setting": "[3]; 10 mg·kg−1 s.c.", "result": "262 ± 48", "unit": "min"},
      {"measurement": "time for CBT to return to baseline values", "setting": "[3]; 30 mg·kg−1 s.c.", "result": "380 ± 59", "unit": "min"},
      {"measurement": "change in home cage activity", "setting": "[3]; 3, 10 and 30 mg·kg−1 s.c.", "result": "without any significant change"},
      {"measurement": "fall in CBT", "setting": "[3]; 3, 10 and 30 mg·kg−1 s.c., over 180 min", "result": "1–2 °C and 2 °C"},
      {"measurement": "change in home cage activity", "setting": "[3]; 3, 10 or 30 mg·kg−1 i.p.", "result": "no detectable change"},
      {"measurement": "fall in CBT", "setting": "[3]; 3, 10 or 30 mg·kg−1 i.p.", "result": "dose-dependent fall"},
      {"measurement": "time of peak fall in CBT", "setting": "[3]; 3, 10 or 30 mg·kg−1 i.p.", "result": "≤ 60", "unit": "min"},
      {"measurement": "drop in CBT versus 3 mg·kg−1 and vehicle", "setting": "[3]; 10 and 30 mg·kg−1 i.p.", "result": "significantly greater"},
      {"measurement": "CBT or home cage activity compared to vehicle", "setting": "[3]; 100 and 300 mg·kg−1 s.c.", "result": "did not alter"},
      {"measurement": "oxaliplatin-induced hypersensitivity to non-noxious cooling (acetone drop)", "setting": "[4]", "result": "dose-dependently suppresses"}
    ]}
  ]
}
